Measured values from US12077503B2, “Substituted cyclic amides and their use as herbicides” (FMC CORPORATION, priority 2015, dated 2024).

Legend:
Type in all cases: in vivo
rice (Oryra sativa) = assay: Test B flooded paddy test; details: Flood, 0 to 100 scale where 0 is no effect and 100 is complete control, 13 to 15 d
Method in brief: (§1)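 Rating scale 0–100 (visual, vs untreated controls) after a 13–15 d greenhouse period; application to the flood layer, 3 cm above soil and maintained; plants at 2-leaf stage when treated.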

[1] = tested on: sedge, umbrella (small-flower umbrella sedge, Cyperus difformis); assay: Test B flooded paddy test; details: Flood, 0 to 100 scale where 0 is no effect and 100 is complete control, 13 to 15 d
Method in brief: as §1

[2] = tested on: barnyardgrass (Echinochloa crus-galli); assay: Test B flooded paddy test; details: Flood, 0 to 100 scale where 0 is no effect and 100 is complete control, 13 to 15 d
Method in brief: as §1

[3] = tested on: ducksalad (Heteranthera limosa); assay: Test B flooded paddy test; details: Flood, 0 to 100 scale where 0 is no effect and 100 is complete control, 13 to 15 d
Method in brief: as §1

Kochia (Kochia scoparia) [4] = assay: Test A preemergence
Method in brief: (§2)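 Ratings of 0 (no effect) to 100 (complete control) come from visual comparison with untreated controls roughly 10 d after treatment. Test chemicals, formulated in a non-phytotoxic solvent mixture with surfactant, were applied either as a preemergence directed soil spray on seeded soil or postemergence to one- to two-leaf plants 2 to 10 cm tall.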

[5] = tested on: giant foxtail (Setaria faberii); assay: Test A preemergence
Method in brief: as §2

[6] = tested on: pigweed (Amaranthus retroflexus); assay: Test A preemergence
[7] = tested on: barnyardgrass (Echinochloa crus-galli); assay: Test A preemergence
Method in brief: as §2

[8] = tested on: ryegrass, Italian (Italian ryegrass, Lolium multiflorum); assay: Test A preemergence
Method in brief: as §2

[9] = tested on: ragweed (common ragweed, Ambrosia elatior); assay: Test A preemergence
Method in brief: as §2

Kochia (Kochia scoparia) [10] = assay: Test A postemergence
Method in brief: as §2

corn (Zea mays) = assay: Test A postemergence
Method in brief: as §2

[11] = tested on: giant foxtail (Setaria faberii); assay: Test A postemergence
Method in brief: as §2

[12] = tested on: pigweed (Amaranthus retroflexus); assay: Test A postemergence
Method in brief: as §2

[13] = tested on: blackgrass (Alopecurus myosuroides); assay: Test A postemergence
Method in brief: as §2

[14] = tested on: wheat (Triticum aestivum); assay: Test A postemergence
Method in brief: as §2

[15] = tested on: Galium (catchweed bedstraw, Galium aparine); assay: Test A postemergence
Method in brief: as §2

[16] = tested on: barnyardgrass (Echinochloa crus-galli); assay: Test A postemergence
Method in brief: as §2

[17] = tested on: ryegrass, Italian (Italian ryegrass, Lolium multiflorum); assay: Test A postemergence
Method in brief: as §2

[18] = tested on: ragweed (common ragweed, Ambrosia elatior); assay: Test A postemergence
Method in brief: as §2

[19] = 125 g ai/ha, Preemergence, visual injury after approximately 10 d, 0 to 100 scale where 0 is no effect and 100 is complete control
[20] = 500 g ai/ha, preemergence, 0 to 100 scale, 0 = no effect, 100 = complete control
[21] = 125 g ai/ha, postemergence, visual rating after approx. 10 d, 0 to 100 scale (0 no effect, 100 complete control)
[22] = 500 g ai/ha, postemergence, visual injury, 0 to 100 scale (0 no effect, 100 complete control), approx. 10 d
[23] = 125 g ai/ha, preemergence, 0 to 100 scale (0 no effect, 100 complete control)
[24] = Preemergence, 500 g ai/ha, 0 is no effect, 100 is complete control
[25] = 500 g ai/ha, postemergence, 0 to 100 scale, 0 no effect, 100 complete control
[26] = Postemergence, 125 g ai/ha, visual injury, 0 to 100 scale (0 no effect, 100 complete control), approx. 10 d

COc1cccc(NC(=O)C2C(=O)NCC2c2cccc(C(F)(F)F)c2)c1F (racemic) [Compound 674]
Plant response rating, Rice (rice (Oryra sativa); 500 g ai/ha): 20
Plant response rating, Sedge, Umbrella ([1]; 500 g ai/ha): 0
Plant response rating, Barnyardgrass ([2]; 500 g ai/ha): 60
Plant response rating, Ducksalad ([3]; 500 g ai/ha): 65
Plant response rating, Kochia (Kochia (Kochia scoparia) [4]; [19]): 0
Plant response rating, Kochia (Kochia (Kochia scoparia) [4]; [20]): 30
Plant response rating, Foxtail, Giant [5, 19]: 70
Plant response rating, Foxtail, Giant [5, 20]: 90
Plant response rating, Pigweed [6, 19]: 0
Plant response rating, Pigweed [6, 20]: 0
Plant response rating, Barnyardgrass [7, 19]: 60
Plant response rating, Barnyardgrass [7, 20]: 80
Plant response rating, Ryegrass, Italian [8, 19]: 0
Plant response rating, Ryegrass, Italian [8, 20]: 0
Plant response rating, Ragweed [9, 19]: 0
Plant response rating, Ragweed [9, 20]: 0
Plant response rating, Kochia (Kochia (Kochia scoparia) [10]; [21]): 0
Plant response rating, Kochia (Kochia (Kochia scoparia) [10]; [22]): 0
Plant response rating, Corn (corn (Zea mays); [21]): 0
Plant response rating, Corn (corn (Zea mays); [22]): 0
Plant response rating, Foxtail, Giant [11, 21]: 30
Plant response rating, Foxtail, Giant [11, 22]: 80
Plant response rating, Pigweed [12, 21]: 0
Plant response rating, Pigweed [12, 22]: 0
Plant response rating, Blackgrass [13, 21]: 0
Plant response rating, Blackgrass [13, 22]: 0
Plant response rating, Wheat [14, 21]: 0
Plant response rating, Wheat [14, 22]: 0
Plant response rating, Galium [15, 21]: 0
Plant response rating, Galium [15, 22]: 0
Plant response rating, Barnyardgrass [16, 21]: 30
Plant response rating, Barnyardgrass [16, 22]: 70
Plant response rating, Ryegrass, Italian [17, 21]: 0
Plant response rating, Ryegrass, Italian [17, 22]: 0
Plant response rating, Ragweed [18, 21]: 0
Plant response rating, Ragweed [18, 22]: 0

Cc1ccc(C2CNC(=O)C2C(=O)Nc2ccccc2F)cc1F (racemic) [Compound 368]
Plant response rating, Rice (rice (Oryra sativa); 250 g ai/ha): 15
Plant response rating, Sedge, Umbrella ([1]; 250 g ai/ha): 0
Plant response rating, Barnyardgrass ([2]; 250 g ai/ha): 55
Plant response rating, Ducksalad ([3]; 250 g ai/ha): 100
Plant response rating, Kochia (Kochia (Kochia scoparia) [4]; [23]): 0
Kochia plant response rating (0 to 100 scale) (Kochia (Kochia scoparia) [4]; [24]): 30
Plant response rating, Foxtail, Giant [5, 23]: 90
Foxtail, Giant plant response rating (0 to 100 scale) [5, 24]: 90
Plant response rating, Pigweed [6, 23]: 0
Pigweed plant response rating (0 to 100 scale) [6, 24]: 0
Plant response rating, Barnyardgrass [7, 23]: 90
Barnyardgrass plant response rating (0 to 100 scale) [7, 24]: 90
Plant response rating, Ryegrass, Italian [8, 23]: 0
Ryegrass, Italian plant response rating (0 to 100 scale) [8, 24]: 30
Plant response rating, Ragweed [9, 23]: 30
Ragweed plant response rating (0 to 100 scale) [9, 24]: 60
Plant response rating, Kochia (Kochia (Kochia scoparia) [10]; [25]): 0
Plant response rating, Kochia (Kochia (Kochia scoparia) [10]; [26]): 0
Plant response rating, Corn (corn (Zea mays); [25]): 20
Plant response rating, Corn (corn (Zea mays); [26]): 0
Plant response rating, Foxtail, Giant [11, 25]: 80
Plant response rating, Foxtail, Giant [11, 26]: 20
Plant response rating, Pigweed [12, 25]: 0
Plant response rating, Pigweed [12, 26]: 0
Plant response rating, Blackgrass [13, 25]: 60
Plant response rating, Blackgrass [13, 26]: 0
Plant response rating, Wheat [14, 25]: 30
Plant response rating, Wheat [14, 26]: 0
Plant response rating, Galium [15, 25]: 50
Plant response rating, Galium [15, 26]: 30
Plant response rating, Barnyardgrass [16, 25]: 90
Plant response rating, Barnyardgrass [16, 26]: 90
Plant response rating, Ryegrass, Italian [17, 25]: 50
Plant response rating, Ryegrass, Italian [17, 26]: 20
Plant response rating, Ragweed [18, 25]: 30
Plant response rating, Ragweed [18, 26]: 0
